Consider 5 compounds from patent US9789115B2 (priority 2010, dated 2017).

One assay concerns naïve rats. Particulars: rat, in vivo.
In assay [1] the test system is operated rats (plantar incision). The note with it: rat, in vivo.
Assay [2] concerns opioid-treated operated rats. In words: Experimental protocol 2: OIH precipitated by naloxone, withdrawal responses with von Frey filaments. The assay is classed as in vivo, rat. Particulars: for naloxone-precipitated hyperalgesia: naloxone on day 21.
The next assay has as its target sigma 2 (σ-2) site (Homo sapiens, UniProt Q5BJF2). Particulars: cited from earlier work.

sigma 2 (σ-2) site, sequence (Q5BJF2 whole entry): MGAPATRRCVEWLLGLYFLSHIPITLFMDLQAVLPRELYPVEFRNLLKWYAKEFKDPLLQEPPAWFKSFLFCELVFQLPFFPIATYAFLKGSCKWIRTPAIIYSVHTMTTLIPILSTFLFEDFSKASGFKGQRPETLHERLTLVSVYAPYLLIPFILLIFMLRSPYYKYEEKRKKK

In the case of `CN1CCN(CCc2ccc(Cl)c(Cl)c2)CC1` [BD-1063], in the assay with naïve rats, the “enhancement of allodynia induced by morphine administration” value is listed as “reduces the enhancement of allodynia” and the morphine-induced hyperalgesia result is on record as “inhibited”.
Consider `Cc1cc(OCCN2CCOCC2)nn1-c1ccc2ccccc2c1` [compound n° 63, 4-{2-[5-Methyl-1-(naphthalen-2-yl)-1H-pyrazol-3-yloxy]ethyl}morpholine], for which, in assay [1], the “allodynia secondary to surgery and OIH when Morphine was used” value is “inhibits allodynia secondary to surgery and OIH”; the “decrease of the mechanical sensitization threshold induced by the surgery” value is reported as “inhibit dose-dependently”; the “development of OIH” value was “inhibits dose-dependently”; the “enhancement of allodynia induced by perioperative morphine” value is on record as “strongly reduced”. Besides, the naloxone-precipitated hyperalgesia result in assay [2] (80 mg/kg co-administered with last dose of opioid) is recorded as “unable to precipitate hyperalgesia”. Further, the naloxone-precipitated hyperalgesia result in assay [2] (20 and 40 mg/kg co-administered with last dose of opioid) is given as “attenuation”.
As to `CN1CC[C@]23c4c5ccc(O)c4O[C@H]2[C@@H](O)C=C[C@H]3[C@H]1C5` [morphine], in assay [1] (ip), the “analgesic effect of the opioid” value is on record as “analgesic effect”.
Take `C=CCN1CC[C@]23c4c5ccc(O)c4O[C@H]2C(=O)CC[C@@]3(O)[C@H]1C5` [naloxone]: the “nociceptive threshold after naloxone injection” value was “significant decrease in the nociceptive threshold below the basal value” in assay [2] (naloxone 2 mg/kg on day 21 in opioid-treated rats) and “no significant effect” in assay [2] (naloxone 2 mg/kg on day 21 in vehicle saline-treated rats).
On to SKF 10047, for which, at sigma 2 (σ-2) site, the “affinity for the sigma 2 site” value is given as “micromolar affinity”.
